# Biological target: T1, Sirtuin 1 (Homo sapiens, UniProt Q96EB6)
# T1 construct: purchased Cayman Chemicals
# T1 sequence (Q96EB6 1-747): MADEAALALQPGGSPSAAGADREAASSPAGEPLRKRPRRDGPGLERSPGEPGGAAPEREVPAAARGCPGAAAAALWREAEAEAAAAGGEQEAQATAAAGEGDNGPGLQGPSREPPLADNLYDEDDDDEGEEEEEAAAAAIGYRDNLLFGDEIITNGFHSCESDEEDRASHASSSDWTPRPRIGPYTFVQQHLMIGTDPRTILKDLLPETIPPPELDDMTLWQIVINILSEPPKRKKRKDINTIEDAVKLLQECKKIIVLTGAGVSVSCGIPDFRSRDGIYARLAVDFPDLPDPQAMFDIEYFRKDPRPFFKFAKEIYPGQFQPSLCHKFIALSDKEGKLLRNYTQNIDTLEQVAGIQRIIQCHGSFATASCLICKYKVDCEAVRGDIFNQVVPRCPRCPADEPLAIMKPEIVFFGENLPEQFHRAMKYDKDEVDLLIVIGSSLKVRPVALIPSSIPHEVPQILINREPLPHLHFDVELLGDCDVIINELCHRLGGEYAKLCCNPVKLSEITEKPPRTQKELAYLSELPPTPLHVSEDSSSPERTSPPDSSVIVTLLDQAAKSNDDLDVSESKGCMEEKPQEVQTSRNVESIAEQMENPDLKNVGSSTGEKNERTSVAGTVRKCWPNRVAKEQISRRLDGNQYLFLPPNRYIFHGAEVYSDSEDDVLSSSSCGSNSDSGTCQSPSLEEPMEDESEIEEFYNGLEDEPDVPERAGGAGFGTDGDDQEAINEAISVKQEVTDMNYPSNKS
# Test: LCMS assay of sirtuin enzymatic action on HP-1
# Assay type: biochemical
# Conditions: Sirtuin 1, −SAHA; 5 μM HP-1, 12 hours at 37° C.
# Procedure: The enzymatic cleavage of HP-1 was analyzed by performing LCMS assays with sirtuin 1 and 3 (Cayman Chemicals) and the proteases chymotrypsin (Sigma-Aldrich), cathepsin (EMD Millipore), and pepsin* (Sigma-Aldrich). Solutions containing (i) vehicle with DMSO in HDAC buffer, (ii) 5 μM HP-1 in HDAC buffer, and (iii) 5 μM HP-1 and the enzyme in HDAC buffer were incubated for 12 hours at 37° C. Following incubation, a 20 μL aliquot of supernatant from each sample was analyzed by LCMS. Deacetylation of HP-1 was investigated by screening for the DHP-1 (M+H)^+ ion following positive electrospray ionization. All assay samples were analyzed in triplicate. […]
# HP-1 was not altered by sirtuins 1 and 3 or the proteases chymotrypsin, cathepsin and pepsin, as determined by LCMS. […] For Cathepsin B, the cleavage of the enzyme substrate, z-RR-pNA (Santa Cruz Biotechnology, Dallas, Tex.) was monitored using a Wallac EnVision 2103 Multilabel fluorescence plate reader (PerkinElmer, Waltham, Mass.) with a 405 nm excitation filter, a 406 nm emission filter, and a gain of 150. The cleavage of the pepsin substrate, Ac-Phe-Tyr-OH (Chem-Impex Inc.), was monitored by LCMS at pH 4. […]
smiles,measurement,value
CC(=O)NC=CCCCCNC(=O)CCCCCNc1ccc([N+](=O)[O-])c2nonc12 [HP-1],% HP-1 to DHP-1,0%

# Source: patent publication US20160138077A1, “MONITORING AND ASSESSING DEACETYLASE ENZYME ACTIVITY” (THE GENERAL HOSPITAL CORPORATION, priority 2013, published 2016)
